According to the Kinase Knowledgebase extract (Sharma et al. 2016):
pIC50, pKd, pKi: −log10 of the molar value.

target: MAPK14 (human) (UniProt Q16539); assay: Inhibition of MAPK14 Kinase Activity; conditions: not given
Sequence (Q16539 whole entry, looked up): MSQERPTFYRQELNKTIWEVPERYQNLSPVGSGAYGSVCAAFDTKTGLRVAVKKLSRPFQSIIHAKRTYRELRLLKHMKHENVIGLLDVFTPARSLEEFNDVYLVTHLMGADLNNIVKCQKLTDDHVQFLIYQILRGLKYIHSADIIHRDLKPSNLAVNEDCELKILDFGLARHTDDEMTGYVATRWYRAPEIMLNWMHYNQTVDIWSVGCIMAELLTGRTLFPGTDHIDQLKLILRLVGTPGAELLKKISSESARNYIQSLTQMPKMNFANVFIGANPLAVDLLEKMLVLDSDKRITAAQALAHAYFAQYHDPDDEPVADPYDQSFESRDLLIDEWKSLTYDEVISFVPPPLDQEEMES

CNc1nc(NCCc2ccccc2OC)nc(Nc2ccc3ncccc3c2)n1 and COc1ccccc1CCNc1nc(NC(Cc2c[nH]c3ncccc23)C(N)=O)nc(N(C)[C@@H](C)c2ccccc2)n1 (stereo partly drawn) cannot be ordered by pIC50: under 4.40 for the first, under 4.40 for the second.

Cc1ccc(C(=O)NC2CC2)cc1-c1cc2cnnc(-c3ccccc3Cl)c2n(C)c1=O and Cc1ccc(C(=O)NC2CC2)cc1-c1cc2cnnc(-c3cc(F)ccc3Cl)c2n(C)c1=O are within 0.2 log units of each other in pIC50: 8.68 for the first, 8.80 for the second.

Going from CCOc1ccc(-c2onc(-c3ccncc3)c2-c2ccc(F)cc2)cc1 to NC(=O)c1cc(-c2onc(-c3ccncc3)c2-c2ccc(F)cc2)ccn1, the pIC50 falls from 5.00 to 4.52 (0.48 log units).

Cc1ccc(-n2nc(C(C)(C)CO)cc2NC(=O)NCc2cc(F)ccc2Oc2ccc3c(cnn3CCO)c2)cc1 and COCC(=O)Nc1cc(Oc2ccc(NC(=O)Nc3cc(C(C)(C)C)nn3-c3ccc(C)nc3)c3ccccc23)ccn1 cannot be ordered by pIC50: over 9.00 for the first, over 6.70 for the second.

First: O=C(Nc1cc(Nc2ccc3c(c2)CCc2ccc(OC[C@H](O)CO)cc2C3=O)ccc1F)c1cccs1
Second: O=C1c2ccccc2COc2cc(Nc3ccc(F)cc3[N+](=O)[O-])ccc21
The pIC50 of the first is 1.73 log units higher: 9.15 for the first, 7.42 for the second.

First: CCN1CCC(Oc2ccc3ncn(-c4cc(C(=O)NC5CC5)ccc4C)c(=O)c3c2)CC1
Second: CCN1CCN(c2ccc3ncn(-c4cc(C(=O)NC5CC5)ccc4C)c(=O)c3c2)CC1
The pIC50 of the first is 0.46 log units lower: 7.18 for the first, 7.64 for the second. The second is the more potent here.

Cc1ccc(C(=O)NC2CC2)cc1-c1ccc(C(=O)N(CCO)Cc2ccccc2)cc1 and Cc1ccc(C(=O)NC2CC2)cc1-c1ccc(C(=O)N(CCO)c2ccccc2)cc1 cannot be ordered by pIC50: over 5.00 for the first, over 5.00 for the second.

Compared with Nc1ccc2snc3c2c1C(=O)c1ccccc1-3, Cc1ccc(N)cc1-c1cc2cnn(-c3ccc(F)cc3F)c2n(C)c1=O is higher in pIC50: under 4.52 for the first, at least 7.00 for the second.

First: CC(n1c(N)nc2ccc(-c3[nH]c(-c4c(F)cccc4F)nc3-c3ccc(F)cc3)nc21)C(C)(C)C (stereo not drawn)
Second: O=c1ccc2c(-c3ccc(F)cc3F)nccc2n1-c1c(F)cccc1F
The pIC50 of the first is 0.47 log units higher: 8.48 for the first, 8.01 for the second. The first is the more potent here.

Compared with COc1ccccc1-c1nnc2sc(COc3ccccc3)nn12, CC(C)(C)c1cc(NC(=O)c2cccc(Oc3ccnc4[nH]c(=O)[nH]c34)c2)n(-c2ccccc2)n1 is 0.31 log units lower in pIC50: 6.13 for the first, 5.82 for the second. The first is the more potent here.

Going from CNCc1ccc(Cn2c(C)cc(OCc3ccc(F)cc3F)c(Br)c2=O)cc1 to CNC(=O)c1ccc(Cn2c(C)cc(OCc3ccc(F)cc3F)c(Br)c2=O)cc1, the pIC50 rises from 7.28 to 7.60 (0.32 log units). The second is the more potent here.

Going from Cc1ncc(Cn2c(C)cc(OCc3ccc(F)cc3F)c(Br)c2=O)cn1 to Cc1cc(OCc2ccc(F)cc2F)c(Br)c(=O)n1Cc1cnc(CO)cn1, the pIC50 falls from 6.74 to 6.35 (0.39 log units). The first is the more potent here.

Going from O=c1c(-c2ccc(F)cc2)c(-c2ccncc2)c2ccccc2n1CCc1ccccc1 to Fc1ccc(-c2cc(-c3ccc(Cl)cc3)oc2-c2ccncc2)cc1, the pIC50 rises from 5.09 to 6.28 (1.19 log units). The second is the more potent here.

First: COc1ccc2cc(-c3c(-c4ccncc4)nc(-c4ccc([S+](C)[O-])cc4)n3CC(C)C)ccc2c1 (stereo not drawn)
Second: CCOc1ccc2c(-c3c(-c4cccc(CC)n4)nn4ccccc34)ccnc2c1
The pIC50 of the first is lower: under 4.80 for the first, 6.43 for the second.

First: Cc1ccc(C(=O)Nc2ccon2)cc1-c1cc2cnnc(-c3ccc(F)cc3F)c2n(C)c1=O
Second: Cc1ccc(C(=O)NC2CC2)cc1-c1cc2cnnc(-c3ccc(F)cc3C)c2n(C)c1=O
The pIC50 of the first is 0.49 log units higher: 9.00 for the first, 8.51 for the second.

First: CC(C)c1nnc2ccc(Sc3ccccc3CNC(=O)Nc3cc(C(C)(C)C)nn3-c3ccc(O)c(Cl)c3)cn12
Second: CC(C)c1nnc2ccc(Sc3ccc(CC(=O)Nc4cc(C(C)(C)C)nn4-c4cccc(CN5CCOCC5)c4)cc3)cn12
The pIC50 of the first is higher: 9.10 for the first, 7.00 to 8.00 for the second.

Going from Cc1ccc(C(=S)NC2CC2)cc1-c1cc2cnn(-c3ccc(F)cc3F)c2n(C)c1=S to COC(=O)c1cc(C(=O)NCC(C)(C)C)ccc1-c1cc(C(=O)NC2CC2)ccc1C, the pIC50 falls from at least 7.00 to 6.90.

First: COc1cc2nccc(Oc3ccc(NC(=O)c4c(C)n(C)n(-c5ccccc5)c4=O)cc3F)c2cc1OC
Second: O=C(Nc1cc(Oc2ccnc3[nH]c(=O)[nH]c23)c(F)c(F)c1F)c1cccc(OC(F)(F)F)c1
The pIC50 of the first is 0.65 log units lower: 5.57 for the first, 6.22 for the second. The second is the more potent here.

Cn1cc(-c2cnc3[nH]cc(C(=O)c4c(F)ccc(NS(=O)(=O)c5cccc(OC(F)F)c5)c4F)c3c2)cn1 and O=c1ccc2c(-c3ccc(F)cc3F)nccc2n1-c1c(Cl)cccc1Cl cannot be ordered by pIC50: at least 5.00 for the first, 8.82 for the second.

First: Nc1nccc(/C=C/c2c(-c3ccccc3)nc3sccn23)n1
Second: CCN(C(C)=O)C(=O)Nc1ccc2ncc(-c3ccccc3)nc2n1
The pIC50 of the first is 0.51 log units lower: 5.80 for the first, 6.31 for the second.

Going from CONC(=O)c1ccc(C)c(Nc2nc(NCC3CCCC(CN)C3)nc(N[C@H](C)C(C)(C)C)n2)c1 (stereo partly drawn) to C=CCN(c1nc(NCCc2c[nH]c3ncccc23)nc(NCc2cccn2C)n1)C1CCCCC1, the pIC50 falls from 8.70 to under 4.40. The first is the more potent here.

Compared with CCCCCOc1cccc(-c2nnc3ccc(Sc4ccc(CC(=O)Nc5cc(C(C)(C)C)nn5-c5ccc(C)cc5)cc4)cn23)c1, Cc1cc(OCc2ccc(F)cc2F)c(Br)c(=O)n1Cc1cccnc1 is lower in pIC50: over 8.00 for the first, 6.82 for the second.

In the case of CC(C)c1nnc2ccc(CCc3cc(F)cc(F)c3)cn12, the pIC50 was 7.07.

For CC(C)(C)c1cc(NC(=O)Nc2ccc(OCCN3CCOCC3)c3ccccc23)no1, the pKd was over 7.00.

In order of rising pKi:
1. CC(C)c1nnc2ccc(Sc3ccccc3CNC(=O)Nc3c(F)c(C(C)(C)C)nn3-c3ccc(O)c(Cl)c3)cn12  9.10
2. CC(C)c1nnc2ccc(Sc3ccccc3CNC(=O)Nc3cc(C(C)(C)C)nn3-c3ccc(O)c(Cl)c3)cn12  9.10

same assay, conditions: concentration not given here

In order of rising inhibition:
1. CCC(=O)Oc1nc2ccccc2c(-c2ccncc2)c1-c1ccc(F)cc1  21%
2. O=c1cc(-c2ccncc2)c2ccccc2[nH]1  22%
3. CCOc1nc2ccccc2c(-c2ccncc2)c1-c1ccc(F)cc1  34%
4. CCC(O)C(O)n1c(=O)c(-c2ccc(F)cc2)c(-c2ccncc2)c2ccccc21 (stereo not drawn)  43%
5. CC1(C)OCCC(Cn2c(=O)c(-c3ccc(F)cc3)c(-c3ccncc3)c3ccccc32)O1 (stereo not drawn)  45%

target: MAPK14 (human) (UniProt Q16539); assay: Assessment of MAPK14 Kinase Activity; conditions: not given

First: Cc1cc(-c2cccc(C(=O)Nc3ccc(OCCN4CCOCC4)c4ccccc34)c2)ccc1F
Second: O=C(Nc1ccc(OCCN2CCOCC2)c2ccccc12)c1cccc(-c2cccc(F)c2)c1
The pIC50 of the first is 0.31 log units higher: 6.31 for the first, 6.00 for the second. The first is the more potent here.

Fc1cc(-c2[nH]c(SCc3ccccc3)nc2-c2cccc(C(F)(F)F)c2)ccn1 and Fc1ccc(-c2nc(SCc3ccccc3)[nH]c2-c2ccnc(Cl)c2)cc1 are within 0.2 log units of each other in pIC50: 5.53 for the first, 5.72 for the second.

Compared with CSc1nc(-c2ccc(F)cc2)c(-c2ccnc(NC3CCCc4ccccc43)c2)[nH]1 (stereo not drawn), CSc1nc(-c2ccc(F)cc2)c(-c2ccnc(NC(C)C(C)(C)C)c2)[nH]1 (stereo not drawn) is 0.34 log units higher in pIC50: 7.30 for the first, 7.64 for the second.

Going from Cc1ncccc1-c1nnc2c(F)c(-c3cc(C(=O)NC4CC4)cc(F)c3C)c(F)cn12 to Cc1c(F)cc(C(=O)NC2CC2)cc1-c1ccn2c(C(C)(C)N)nnc2c1, the pIC50 rises from 7.09 to 7.81 (0.72 log units).

First: [O-][n+]1ccc2c(-c3ccc(F)cc3F)cc(N3CCNCC3)nc2c1-c1c(F)cccc1F
Second: Cc1nc(Nc2c(C(=O)N3CC[C@@H](O)C3)sc3c2ccc(=O)n3-c2c(F)cccc2F)ccc1F
The pIC50 of the first is higher: 9.20 for the first, 6.30 to 8.30 for the second. The first is the more potent here.

Going from Cc1n[nH]c(C)c1-c1nncc2nc(Nc3ccc(F)cc3F)ccc12 to CC(C)Oc1n[nH]c2nc(Oc3ccc(F)cc3F)ncc12, the pIC50 falls from 8.80 to 6.78 (2.02 log units).

Cc1cccc(Nc2c(C(=O)N3CCC[C@H]3CO)sc3c2ccc(=O)n3-c2c(F)cccc2F)n1 and Cc1cccc(Nc2c(C(=O)N3CCC[C@@H]3CO)sc3c2ccc(=O)n3-c2c(F)cccc2F)n1 cannot be ordered by pIC50: 6.30 to 8.30 for the first, 7.52 to 7.82 for the second.

CON=C(c1ccccc1)c1cnn(-c2ccccc2)c1N and Cc1nn(-c2ccccc2)c(O)c1C(=O)c1ccccc1 cannot be ordered by pIC50: under 4.00 for the first, under 4.00 for the second.

Compared with Cc1ccc(C(=O)NC2CC2)cc1Nc1ncc(C(=O)NCc2ccccc2)s1, Cc1ccc(C(=O)NC2CC2)cc1Nc1nc(-c2cccc(C#N)c2)c(C(=O)NCc2ccccc2)s1 is lower in pIC50: over 7.30 for the first, 7.00 to 7.30 for the second.

Cc1c(NC(=O)c2cc(F)cc(N3CCOCC3)c2)sc(CN2CCOCC2)c1Cl and Cc1c(NC(=O)Nc2cc(C(C)(C)C)nn2-c2ccc(F)cc2)sc(CN2CCOCC2)c1Cl cannot be ordered by pIC50: over 5.30 for the first, over 5.30 for the second.

Compared with O=C(Nc1ccc(OCCN2CCOCC2)c2ccccc12)c1cccc(C=Cc2ccccc2)c1, CN(CCO)c1nccc(Oc2ccc(NC(=O)c3cc(F)cc(N4CCOCC4)c3)c3ccccc23)n1 is higher in pIC50: under 5.00 for the first, 7.73 for the second.

CC(Oc1nncc2cc(Nc3ccc(F)cc3)ccc12)C(F)(F)F (stereo not drawn) and CONC(=O)c1ccc(C)c(Nc2nnc(-c3ccccc3)[nH]2)c1 cannot be ordered by pIC50: 8.04 for the first, over 7.30 for the second.

Going from Oc1cc(-c2nc(-c3ccccc3)[nH]c2-c2ccncc2)ccc1Cl to Clc1ccc(-c2n[nH]c(N3CCc4ccccc4C3)c2-c2ccncc2)cc1, the pIC50 falls from 10.00 to 6.72 (3.28 log units). The first is the more potent here.

Going from N=C(N)c1ccc(Cn2c(=O)[nH]c3cc(C(=O)c4ccccc4)ccc32)cc1 to Cc1ccc(C(=O)NC2CC2)cc1Nc1nc(-c2cccc(CN)c2)c(C(=O)NCc2ccccc2)s1, the pIC50 rises from 6.89 to over 7.30. The second is the more potent here.

Going from OC1CCCN(c2[nH]nc(-c3ccc(Cl)cc3)c2-c2ccncc2)C1 (stereo not drawn) to Clc1ccc(-c2n[nH]c(N3CCN4CCC[C@H]4C3)c2-c2ccncc2)cc1, the pIC50 rises from 6.72 to 7.21 (0.49 log units).

Fc1ccc(Oc2cc3cnc(NC4CCOCC4)nc3cn2)c(F)c1 and O=C(Nc1ccc(Oc2ccnc(NC[C@@H]3CCCO3)n2)c2ccccc12)c1cc(F)cc(N2CCCCC2)c1 cannot be ordered by pIC50: over 6.52 for the first, 8.64 for the second.

Cc1cccc(Nc2c(C(=O)N3CC[C@H](O)C3)sc3c2ccc(=O)n3-c2c(F)cccc2F)n1 and Cc1ccc(C(=O)NC2CC2)cc1Nc1nc(-c2ccc3[nH]ccc3c2)c(C(=O)NCc2ccccc2)s1 cannot be ordered by pIC50: 6.30 to 8.30 for the first, under 7.00 for the second.

CC(C)Nc1ncc2c(n1)N(CC(=O)O)C(=O)N(c1ccccc1Cl)C2 and CC(C)Nc1ncc2c(n1)N(CCO)C(=O)N(c1ccccc1Cl)C2 cannot be ordered by pIC50: over 5.00 for the first, over 5.00 for the second.

Going from CC1CC(C)CN(c2[nH]nc(-c3ccc(Cl)cc3)c2-c2ccncc2)C1 (stereo not drawn) to CN1CCN(c2[nH]nc(-c3ccc(Cl)cc3)c2-c2ccncc2)CC1, the pIC50 rises from 6.89 to 7.30 (0.41 log units). The second is the more potent here.

CC(C)Nc1ncc2c(n1)N(CCS(C)(=O)=O)C(=O)N(c1ccccc1Cl)C2 and Cc1ccc(C(=O)NC2CC2)cc1Nc1nc(-c2ccccc2)cs1 cannot be ordered by pIC50: over 5.00 for the first, under 7.00 for the second.

Going from CC[C@@H](NC(=O)c1cn2ncnc(Nc3cc(NC(=O)c4cccc(N5CCOCC5)c4)ccc3C)c2c1C)OC to O=C(Nc1ccc(Oc2ccnc(N3CCCC3)n2)c2ccccc12)c1cc(F)cc(N2CCCCC2)c1, the pIC50 falls from 7.92 to 7.38 (0.54 log units).

same assay, conditions: concentration not given here

In order of falling inhibition:
1. CC1=C(C(=O)Nc2cc3cn[nH]c3cc2F)C(c2ccc(C(F)(F)F)cc2)CC(=O)N1 (stereo not drawn)  -3%
2. CCn1c(-c2nonc2N)nc2cnc(Oc3cccc(NC(=O)c4ccc(OCCN5CCOCC5)cc4)c3)cc21  -8%
3. Cc1cncc2cccc(S(=O)(=O)N3CCCNC[C@@H]3C)c12  -9%
